Reference: ChEMBL document CHEMBL5678818, “Discovery of potent SOS1 inhibitors that block RAS activation via disruption of the RAS-SOS1 interaction” (Proc Natl Acad Sci U S A, 2019)

Tests used:
[1] = biological target: T1, Myosin-IIIb (Homo sapiens) (UniProt Q8WXR4); assay: Inhibition of MYO3B (unknown origin) assessed as residual activity at 100 nM by KINOMEscan analysis relative to control
T1 sequence (whole entry): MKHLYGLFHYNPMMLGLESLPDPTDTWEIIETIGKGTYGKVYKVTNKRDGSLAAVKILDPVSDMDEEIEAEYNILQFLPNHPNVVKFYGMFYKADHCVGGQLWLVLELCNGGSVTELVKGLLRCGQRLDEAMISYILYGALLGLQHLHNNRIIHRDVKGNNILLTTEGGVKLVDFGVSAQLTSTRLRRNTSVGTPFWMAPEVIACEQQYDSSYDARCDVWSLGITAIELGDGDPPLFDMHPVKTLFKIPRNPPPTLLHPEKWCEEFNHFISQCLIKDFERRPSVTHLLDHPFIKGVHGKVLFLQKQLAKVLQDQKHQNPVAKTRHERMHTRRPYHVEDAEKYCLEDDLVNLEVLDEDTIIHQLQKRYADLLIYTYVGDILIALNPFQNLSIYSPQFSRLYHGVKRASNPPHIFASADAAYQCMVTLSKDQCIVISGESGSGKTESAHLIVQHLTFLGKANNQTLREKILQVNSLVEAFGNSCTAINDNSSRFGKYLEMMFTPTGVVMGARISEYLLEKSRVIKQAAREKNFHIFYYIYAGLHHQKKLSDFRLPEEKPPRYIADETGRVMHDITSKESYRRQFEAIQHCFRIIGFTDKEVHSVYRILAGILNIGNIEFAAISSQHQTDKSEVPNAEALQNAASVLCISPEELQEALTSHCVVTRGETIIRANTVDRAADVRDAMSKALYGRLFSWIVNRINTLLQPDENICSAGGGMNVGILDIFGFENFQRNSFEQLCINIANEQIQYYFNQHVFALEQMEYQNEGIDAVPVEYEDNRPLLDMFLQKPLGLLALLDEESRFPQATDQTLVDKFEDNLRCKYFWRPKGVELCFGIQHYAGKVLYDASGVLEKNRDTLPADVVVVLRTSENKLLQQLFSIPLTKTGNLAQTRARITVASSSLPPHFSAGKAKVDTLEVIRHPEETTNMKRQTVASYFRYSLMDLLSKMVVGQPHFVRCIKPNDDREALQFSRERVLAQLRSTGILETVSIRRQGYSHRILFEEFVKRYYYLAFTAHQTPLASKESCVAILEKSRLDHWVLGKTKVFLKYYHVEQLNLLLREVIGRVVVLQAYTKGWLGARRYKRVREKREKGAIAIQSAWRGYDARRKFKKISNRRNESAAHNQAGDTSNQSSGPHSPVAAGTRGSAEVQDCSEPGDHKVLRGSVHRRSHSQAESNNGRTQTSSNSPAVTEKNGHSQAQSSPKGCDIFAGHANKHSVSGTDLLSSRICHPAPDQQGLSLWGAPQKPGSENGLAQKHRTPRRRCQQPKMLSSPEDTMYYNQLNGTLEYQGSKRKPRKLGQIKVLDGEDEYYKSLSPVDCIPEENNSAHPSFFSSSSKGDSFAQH

[2] = test system: Tyrosine-protein kinase ABL1 (Homo sapiens), P00519 [T315I]; assay: Inhibition of nonphosphorylated ABL1 T315I mutant (unknown origin) assessed as residual activity at 100 nM by KINOMEscan analysis relative to control
[3] = biological target: T2, Serine/threonine-protein kinase tousled-like 1 (Homo sapiens) (UniProt Q9UKI8); assay: Inhibition of TLK1 (unknown origin) assessed as residual activity at 100 nM by KINOMEscan analysis relative to control
T2 sequence (whole entry): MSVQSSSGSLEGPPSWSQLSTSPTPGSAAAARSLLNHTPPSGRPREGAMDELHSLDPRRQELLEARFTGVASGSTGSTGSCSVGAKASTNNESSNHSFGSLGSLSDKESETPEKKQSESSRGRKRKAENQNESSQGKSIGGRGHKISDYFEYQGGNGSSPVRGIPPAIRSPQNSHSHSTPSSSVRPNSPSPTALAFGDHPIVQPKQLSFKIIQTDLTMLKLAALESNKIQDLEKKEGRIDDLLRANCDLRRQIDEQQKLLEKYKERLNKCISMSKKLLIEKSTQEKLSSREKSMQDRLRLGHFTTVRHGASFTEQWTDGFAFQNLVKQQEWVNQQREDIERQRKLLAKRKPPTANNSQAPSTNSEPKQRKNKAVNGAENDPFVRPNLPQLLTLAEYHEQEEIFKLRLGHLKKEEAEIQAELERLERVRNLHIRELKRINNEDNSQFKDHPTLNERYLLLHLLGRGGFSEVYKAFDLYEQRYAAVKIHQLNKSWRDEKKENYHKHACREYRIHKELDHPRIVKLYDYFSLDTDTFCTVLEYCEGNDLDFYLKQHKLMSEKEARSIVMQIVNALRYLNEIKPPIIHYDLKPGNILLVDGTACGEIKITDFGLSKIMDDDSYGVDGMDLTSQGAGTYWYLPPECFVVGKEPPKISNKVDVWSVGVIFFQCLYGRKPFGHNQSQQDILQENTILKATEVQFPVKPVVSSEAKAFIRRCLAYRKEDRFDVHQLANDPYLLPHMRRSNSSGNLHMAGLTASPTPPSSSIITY

Question: Which Activity [1] does the source give for COc1cc2ncnc(N[C@H](C)c3cccc4ccccc34)c2cc1OC here?
Answer: Its Activity is 98%.

Question: And the Activity [2]?
Answer: The Activity was 100%.

Question: What about the Activity [3] of the same compound?
Answer: The Activity was 79%.
